# In ChEMBL document CHEMBL1157539, “Thousands of chemical starting points for antimalarial lead identification” (Nature, 2010):
# Tested on: Plasmodium falciparum
# Assay: GSK_TCMDC: Inhibition of Plasmodium falciparum 3D7 in whole erythrocytes, using parasite LDH activity as an index of growth.
# Format: functional, organism-based
# Conditions: Plasmodium falciparum, 3D7
row,Structure (SMILES),XC50 [nM]
1,CCN1CCC(N(Cc2ccc(-c3ccc(C(F)(F)F)cc3)o2)C(=O)Cn2c(CCc3cccc(F)c3F)nc(=O)c3ccccc32)CC1,1140
2,COCCCNc1sc(S(=O)(=O)c2ccccc2)nc1S(=O)(=O)c1ccc(Cl)cc1,877
3,NC1=NC(c2ccccc2)N(c2ccc(Cl)c(Cl)c2)C(N)=N1 (configuration not stated),14.6
4,O=C(/C=C/c1cccc(Cl)c1)Nc1ccc2nc(CN3CCCC3)ccc2c1,255
5,CN1CCCC(CN2CCN(Cc3cccc(-c4ccc(-c5nc6ccccc6[nH]5)cc4)c3)CC2)C1 (configuration not stated),157
6,N#Cc1cccc(Nc2nccc(NCC(O)c3ccccc3C(F)(F)F)n2)c1 (configuration not stated),827
7,CNCCNCc1ccc(-c2ccc(-c3nc4cc(C(F)(F)F)ccc4[nH]3)s2)cc1,604
8,Cc1ccc2[nH]c(Nc3ccc(Nc4nc5cc(C)ccc5[nH]4)c(C)c3)nc2c1,769
9,O=C1c2ccc([N+](=O)[O-])cc2C(=O)N1c1ccc2[nH]ncc2c1,1150
10,COc1cccc(-c2cc(-c3ccc(NC(=O)c4ccccc4)cc3)c3c(N)ncnc3n2)c1,587
11,CCOC(=O)c1ccc(NC(=O)Nc2cccc(-c3cccc(-c4nc5cccc(C)c5[nH]4)c3)c2)cc1,106
12,Cc1cc(N[C@@H](CC(C)C)C(=O)NCc2cccc(F)c2)nc(NCC2CCCCC2)n1,834
13,Cc1cnc(Nc2ccccc2)nc1NCCC(=O)Nc1ccccc1,1160
14,Cc1cc(NCCc2ccccc2)nc(NC(=N)Nc2cccc([N+](=O)[O-])c2)n1,140
15,O=C(Nc1ccc(CN2CCCCC2)cc1)c1ccc(COc2ccc([N+](=O)[O-])cc2)o1,996
16,COc1c(C2CCN(CCN3CCC(NC(=O)c4ccc(-c5ccc(C(F)(F)F)cc5)cc4)CC3)CC2)ccc2c1CCCC2,1360
17,O=C(Nc1cccc(CN2CCCN(Cc3cccc(O)c3)CC2)c1)c1ccc(Cl)c(Cl)c1,664
18,CCc1cc(C(=O)c2cccc(C)c2)c(NC(=O)CN2CCN(C(=O)c3ccco3)CC2)s1,451
19,COCCNCc1cccc(-c2ccc(CN(C(=O)NC3CCCCC3)C3CCN(Cc4ccccc4)CC3)cc2)c1,759
20,CN1CCC(NCc2ccc(-c3cccc(S(=O)(=O)NCCc4ccccn4)c3)cc2)CC1,993
21,c1ccc(-c2ccc(-c3nc4ccccc4[nH]3)cc2)cc1,809
22,COCC(=O)N(Cc1ccccc1-c1ccc(CNCCc2ccccc2)cc1)C1CCN(Cc2ccccc2)CC1,895
23,CCc1nc(N)nc(N)c1CCCOc1ccccc1Cl,105
24,O=C(c1ccco1)N1CCN(c2ccc([N+](=O)[O-])c(NC3CC3)c2)CC1,747
25,COc1ccc(CCNCCCCCCNCCc2ccc(-c3ccccc3)cc2)cc1OC,958

row,Structure (SMILES),XC50 [nM]
1,Cc1cccc(C(=O)NCCCN2CCC(NC(=O)/C=C/c3ccc(Cl)c(Cl)c3)CC2)c1,1700
2,O=C(CSc1nccn1C1CCCCC1)Nc1cc(C(F)(F)F)ccc1Cl,402
3,Brc1ccc(Nc2nc(NCc3ccccc3)c3ccccc3n2)cc1,337
4,CCN(CC)CCOc1cc2c(cc1Br)-c1cc(Br)c(OCCN(CC)CC)cc1C2=NO,1090
5,FC(F)(F)c1ccc2[nH]c(-c3ccc(-c4cccc(CNCCN5CCNCC5)c4)s3)nc2c1,1040
6,CCCCC1(c2ccc(F)cc2)NC(=O)N(CC(=O)c2cc(C)n(Cc3ccco3)c2C)C1=O (configuration not stated),983
7,CC(=O)c1ccc(N2CCN(CCC3(c4ccc(Cl)c(Cl)c4)COCN(C(=O)c4ccccc4)C3)CC2)cc1 (configuration not stated),925
8,O=C(Nc1ccc2c(c1)CCN2C1CCN(Cc2cccc(F)c2F)C1)c1ccco1 (configuration not stated),787
9,Oc1ccc2[nH]c(-c3ccc(OC(F)(F)F)cc3)nc2c1CNC1CCCC1,1750
10,Clc1ccc2c(NN=Cc3ccco3)ccnc2c1,1100
11,Cc1cccc2nc(-c3ccc(-c4cccc(CNCCCNS(C)(=O)=O)c4)cc3)[nH]c12,1220
12,O=C1CCCN1CCCNCc1ccc(-c2ccc(-c3nc4cc(F)ccc4[nH]3)s2)cc1,896
13,CC[C@H](C)CNC(=O)c1cncc(-c2ccc(CNC3CCCC3)cc2)c1,1120
14,CC[C@@]1(O)C(=O)OCc2c1cc1n(c2=O)Cc2c-1nc1cc3c(cc1c2CN1CCN(C)CC1)OCCO3,446
15,COc1ccc(CCN2CCC(CN(C)Cc3cnn(-c4ccccc4)c3)CC2)cc1,1160
16,CCn1c(-c2nonc2N)nc2c(-c3cccc(Cl)c3)ncc(OCCCNCc3cnc(C)nc3N)c21,1010
17,Cc1cc(N)c2cc(NC(=O)c3cc(C(F)(F)F)cc(C(F)(F)F)c3)ccc2n1,86.8
18,Cc1nc(NC(=N)N)nc2ccc(C(C)(C)C)cc12,747
19,O=C(Nc1cc(F)cc(F)c1)N1CCOC(CCN2CCC3(CCc4ccccc43)CC2)(c2ccc(Cl)c(Cl)c2)C1 (configuration not stated),275
20,CCCC(C)Nc1nc(C)cc(N[C@@H](CC(C)C)C(=O)NCCOc2ccccc2)n1 (some centres not stated),1710
21,O=S(=O)(NCCN1CCCC1)c1ccc(-c2cccc(CNC3Cc4ccccc4C3)c2)cc1F,1020
22,NCCc1cccc(-c2cnc3[nH]cc(-c4ccc(C(=O)O)cc4)c3c2)c1,397
23,O=C(COC(=O)c1cccc(S(=O)(=O)N2CCc3ccccc32)c1)NNC(=O)c1cccs1,1250
24,CCCn1c(O)nnc1SCC(=O)Nc1cc(C(F)(F)F)ccc1Cl,222
25,CCCc1ccc(S(=O)(=O)NC2CCN(C(=O)Nc3ccc(I)cc3)CC2)cc1,872

row,Structure (SMILES),XC50 [nM]
1,O=C(NCc1cccc(F)c1)Nc1cccc(-c2cccc(-c3nc4cc(C(F)(F)F)ccc4[nH]3)c2)c1,330
2,NCC1CCCN1Cc1ccc(-c2cccc(-c3nc4cc(C(F)(F)F)ccc4[nH]3)c2)cc1 (configuration not stated),833
3,O=C(Nc1cccc(F)c1)N(Cc1ccc(-c2cccc(CN3CCNCC3)c2)cc1)C1CCN(Cc2ccccc2)CC1,763
4,Cc1cccc(-c2ccc(CNC3CCN(CC4Cn5c(=O)ccc6ccc(F)c4c65)CC3)cn2)c1 (configuration not stated),1530
5,COc1cccc(C=Cc2nc(=O)c3ccccc3o2)c1OC,64.4
6,COc1cc(Cc2cnc(N)nc2N)c2ccsc2c1OC,1070
7,Cc1cccc2nc(-c3ccc(-c4cccc(NC(=O)c5cccc(C(N)=O)c5)c4)cc3)[nH]c12,1130
8,CCCCCCNc1c2ccccc2nc2ccccc12,949
9,CC(C)(C)c1ccc(CNC(=O)c2cc(CNC3CCNCC3)ccc2O)cc1,710
10,CCN(CCCN1CCCC1)c1cc(C)nc(Nc2ccc(Cl)cc2)n1,344
11,CC(C)CCN(Cc1cncn1Cc1cccc(C(F)(F)F)c1)C(=O)c1ccccc1C#N,614
12,CCCc1c(C(=O)NC2CCC(CN3CCC(c4c[nH]c5ccccc45)CC3)CC2)cnn1-c1c(Cl)cc(Cl)cc1Cl (configuration not stated),820
13,N#Cc1ccc2c(c1)CCN(CCC1CCC(NC(=O)c3cc4cccc([N+](=O)[O-])c4[nH]3)CC1)C2 (configuration not stated),684
14,CC(C)(C)c1ccc(C(=O)Nc2ccc3nc4c(c(N)c3c2)CCCC4)cc1,175
15,COc1ccc(-c2cnc3ccc(NCc4ccc(F)cc4)nn23)cc1OC,834
16,O=C(N[C@@H](Cc1ccccc1)C(=O)O)c1cc(-c2ccc(F)cc2)no1.O=C(N[C@@H](Cc1ccccc1)C(=O)O)c1conc1-c1ccc(F)cc1,802
17,CCCN(CCC)CCCN(CCCN(CCC)CCC)c1cc(C)nc(Nc2ccc3cc(Br)ccc3c2)n1,210
18,CCc1c(C)c(C#N)c2nc3ccccc3n2c1NCc1ccco1,698
19,CC(C)CNCc1cccc(-c2cccc(CN(C(=O)c3cccs3)C3CCN(Cc4ccccc4)CC3)c2)c1,896
20,CN(C)c1cccc2c1nc(-c1ccc3c(c1)CCO3)n2CCNCc1ccccc1,734
21,COc1ccc(C2CC(=O)C3=C(C2)NC(C)=C(C(=O)OC(C)C)C3c2c(F)cccc2Cl)cc1OC (configuration not stated),824
22,CO/C(=C\C=C\c1cc2cc(Cl)c(Cl)cc2[nH]1)C(=O)NCCCN1CCN(Cc2ccccc2)CC1,912
23,O=C1C2C(c3ccc(Cl)c(Cl)c3)N3CC(OCc4ccccc4)CC3(C(=O)O)C2C(=O)N1c1ccc(Br)cc1 (configuration not stated),336
24,COc1cccc(C23NC(=Nc4nc5ccccc5[nH]4)NC2(c2cccc(OC)c2)NC(=Nc2nc4ccccc4[nH]2)N3)c1 (configuration not stated),157
25,Cc1cc(N2CCN(CC3CCN(C)CC3)CC2)nc(Nc2ccc(Br)cc2)n1,442

row,Structure (SMILES),XC50 [nM]
1,Cc1ccc(-c2nc3cc(C(=O)NC4CCN(Cc5ccccc5)CC4)ccc3[nH]2)cc1,744
2,CC(=O)Nc1ccc(CN2CCC(NC(=O)c3ccc(-c4cccc(Cl)c4)s3)CC2)cc1,792
3,CCCn1c(Sc2ccc(C#N)c([N+](=O)[O-])c2)nnc1-c1ccc(Cl)cc1,537
4,CCOc1ccc2[nH]c(C)cc(=NN=Cc3cccnc3)c2c1,155
5,COc1cc2nc(N3CCC(CNC(=O)/C=C/c4cccc(C)c4)CC3)nc(N)c2cc1OC,684
6,N#Cc1ccc(N2CCN(Cc3cccc(-c4cccc(-c5nc6cc(F)ccc6[nH]5)c4)c3)CC2)nc1,959
7,Cc1ccc(C)c(Cn2c(N3CCC(C(=O)NCc4cccs4)CC3)nc3ccccc32)c1,938
8,Nc1ncnc2c1ncn2C(CO)Cc1ccc(O)cc1 (configuration not stated),1030
9,COc1ccc2[nH]ccc(=NN=Cc3ccccc3)c2c1,110
10,CCCCC/C=C/C(=O)NC1CCC(CN2CCC(c3c[nH]c4ccccc34)CC2)CC1 (configuration not stated),982
11,O=C(/C=C/c1c[nH]c2ccccc12)NCCCCCN1CCC(c2c[nH]c3ccccc23)CC1,932
12,CCOC(=O)c1ccc(OCc2ccc(-c3ccccc3)cc2)cc1,813
13,CCOCCCNc1ncc(-c2ccsc2)c(-c2nc(C)cs2)n1,272
14,CN(C)CCCOc1ccc(-c2csc(NC(=N)NCc3ccccc3)n2)cc1,278
15,C[C@@H](Oc1cc(-n2cnc3cc(SCCN4CCN(C)CC4)ccc32)sc1C(N)=O)c1ccccc1Cl,507
16,O=C(N[C@@H](Cc1cc(F)cc(F)c1)[C@H](O)CNCc1cccc(C(F)(F)F)c1)c1cc(C2CCCC2)cc(N2CCCC2=O)c1,803
17,c1ccc(-c2ccc(-c3csc(Nc4ccncc4)n3)cc2)cc1,1010
18,O=C(Nc1ccc(OC2CCN(Cc3ccsc3)CC2)c(Cl)c1)c1cccs1,600
19,COc1ccc2[nH]c(C(=O)Nc3ccc4[nH]c(-c5ccccc5)nc4c3)cc2c1,834
20,O=C(Nc1ccc(N2CCCCC2)c(Cl)c1)c1ccc(Br)o1,549
21,Cc1cc2c(cc1C(F)(F)F)N(C(=O)Nc1cc(OCCN(C(C)C)C(C)C)cc(C(F)(F)F)c1)CC2,259
22,c1cc(CNCCc2ccncc2)cc(-c2ccc(-c3nc4ccccc4[nH]3)cc2)c1,146
